Here are results for 2 compounds from patent US12337000B2, “Therapeutic modulators of the reverse mode of ATP synthase” (priority 2017, dated 2025).

Data set [1] concerns HL-1 cardiac muscle cell line. Particulars: 3 μM, HL-1 cells, data from [12]; cited from earlier work.
Data set [2] addresses F1F0 ATP synthesis and hydrolysis (Homo sapiens, UniProt P06576+P25705). Particulars: isolated mitochondria, no matter how great the concentration [114]; cited from earlier work.
The conditions of data set [3]: humans [121]; cited from earlier work.
For data set [4] the following is noted: cited from earlier work.
Data set [5] in a line: Human pharmacokinetics of oral almitrine dimesylate. The data set is classed as in vivo. As to conditions: 0.6*17, after 200 mg oral dose.
The mark [6] stands for this setting: 30 year pharmacovigilance survey in France, oral, multi-year use [120].

As for `CC[C@H]1/C=C/C=C/C[C@@H](C)[C@H](O)[C@@](C)(O)C(=O)[C@@H](C)[C@H](O)[C@@H](C)C(=O)[C@@H](C)[C@H](O)[C@@H](C)/C=C/C(=O)O[C@@H]2[C@H](C)[C@H](CC1)O[C@@]1(O[C@@H](C[C@@H](C)O)[C@@H](C)CC1=O)[C@H]2C` [Oligomycin B], the “change of O2 consumption” value in data set [1] is recorded as −40%.
For `C=CCNc1nc(NCC=C)nc(N2CCN(C(c3ccc(F)cc3)c3ccc(F)cc3)CC2)n1` [almitrine], in data set [2], the “maximal decrease in F1F0 ATP synthesis and hydrolysis” value was ~60%. Besides, the “volume of distribution (VD)” value in data set [3] is 17 L/kg. In data set [4] (setting [6]), the peripheral neuropathy is 2,304 cases and the weight loss is recorded as 795 cases. Besides, the “share of presenting cases categorised as serious” value in data set [4] ([120]) is < 10%. Besides, the “patients with reversible lactic acidosis and hepatic dysfunction” value in data set [4] (intravenous 459±155 mg within 24 hours, 25 patients [127]) is recorded as 30%. Besides, in data set [4] (oral, chronic use [120]), the “mean onset of adverse reactions” value is on record as 11 months. Besides, the “corresponding tissue concentration (assuming uniform)” value in data set [5] is ~10 µM.
